System: Carrageenin-induced edema
Test: Inhibitory activity on Carrageenin-induced Edema in rats (Experiment A)
Type: in vivo, rats (male Wistar)
Conditions: 3 hours after Carrageenin
Procedure: Inhibitory activity on Carrageenin-induced Edema in rats
Carrageenin was used as the agent for inducing edema and 5 male rats of Wistar strain having body weight of about 150 grs. after fasting for 16-17 hours were used as test animals. The inhibitory activity of the test compounds were determined with the paw edema method in accordance with Winter C. A. et al; Proc. Soc. Exp. Biol. Med. 111, 544 (1962).
The compounds were suspended in an aqueous solution of gum arabic and the same were orally administered to the rats at 1 hour before the injection of Carrageenin.
The observation was effected by measuring, after 3 hours the administration of the Carrageenin, the enlarged volumes of hind paw of the rats.

## CC(C(=O)O)c1cccc(Oc2ccccc2Cl)c1 (stereo not shown) [Compound (5), 2-[m-(o-chlorophenoxy)phenyl]propionic acid]
Oral 8.0 mg/kg
  % of Inhibition: 43%
  Edema density ± S.E.: .305 ± .044
Oral 40.0 mg/kg
  % of Inhibition: 53%
  Edema density ± S.E.: .250 ± .049

Reference: patent US3985779A, “M-phenoxyphenyl propionic acid derivatives and preparation thereof” (Eisai Co., Ltd., priority 1973, dated 1976)
